US10231973B2, “Salts of quinazoline derivative and method for preparing the same” (CHIA TAI TIANQING PHARMACEUTICAL GROUP CO., LTD., priority 2015, dated 2019)
Read-outs that look alike come from different tables or passages of the source.

How the values were obtained:
[1] = Bioavailability test, oral suspensions in beagle dogs; format: in vivo; conditions: oral suspension in CMC-Na, 5 mg/kg (as compound of Formula I); for Cmax: plasma concentration of compound of Formula I by LC-MS; for AUC0-t: sampling to 48 h
Protocol: Study procedure: Fifteen beagle dogs (7.4˜9.4 kg body weight) were randomly divided into 5 groups, and administered orally suspensions of the compound of Formula I, the maleate, citrate, oxalate and acetate thereof (calculated according to the amount of the compound of Formula I) in CMC-Na (carboxymethylcellulose sodium) at a dosage of 5 mg/kg body weight, respectively.
Chromatographic conditions: methanol as mobile phase A and a 0.1% (v/v) aqueous solution of formic acid as mobile phase B, an isocratic elution A:B=52:48; 0.2 mL/min of a flow rate; 35° C. of column temperature; and SHIMADZU Shim-pack VP-ODS C18 (5.0 μm, 150 mm×2.0 mm I.D., Shimadzu Corporation) as chromatographic column.
Mass spectrometry conditions: ion source: ESI ionization source, scanning in SIM mode, 250° C. of curved desolventizer (CDL) temperature, 200° C. of heating block temperature; 25V of CDL voltage; +1.60 kV of detection voltage; 1.5 L/min of atomization gas flow rate; 2.0 L/min of dry gas flow rate.

[2] = tested on: NCI-H1975, a human non-small cell lung cancer cell; assay: Anchorage-independent cell proliferation assay, NCI-H1975; format: cell-based; conditions: NCI-H1975, 168 h, soft agarose, 7 days treatment, CellTiter-Blue
Protocol: (§1) NCI-H1975, a human non-small cell lung cancer cell, and BT474, a human breast cancer cell line, were cultured in RPIM-1640 or DMEM culture medium supplemented with 10% fetal bovine serum (FBS) in a cell incubator (37° C., 5% CO2). In the test of the compound, culture plates were pre-coated with 0.6% medium, and the cells were resuspended with 0.3% low-melting-point agarose, and then seeded in a 96-well plate at a density of 10,000 cells per well (100 μL). The compound was diluted at a 3-fold gradient, starting from 10 mM. For each of concentration, 2 μL of the solution was taken, and added to 98 μL of culture medium, and then 5.3 μL of the mixture was added to the cell culture medium (0.1% of DMSO final concentration, v/v). After the treatment for one week (7 days), 20 μL of CellTiter-Blue® (Promega) reagent was added, and incubated at 37° C. for 4 hours. Fluorescence signals were read on Envison (Perkin Elmer), and IC50 values of the compound for inhibiting cell proliferation were calculated using GraphPad Prism 5.0.

[3] = tested on: BT474, a human breast cancer cell line; assay: Anchorage-independent cell proliferation assay, BT474; format: cell-based; conditions: BT-474, 168 h, soft agarose, 7 days treatment, CellTiter-Blue
Protocol: as §1

Vd/F ([1]; dog, plasma) [L/kg]	half-life ([1]; dog, plasma) [h]	Cmax ([1]; dog, read-out: Cmax) [ng/mL]	CL/F ([1]; dog, plasma, read-out: CL/F (converted)) [mL/min/kg]	Tmax ([1]; dog, plasma, read-out: Tmax) [h]	AUC0-t ([1]; dog, plasma, read-out: AUC0-t) [ng·h/mL]	IC50 [2] [nM]	IC50 [3] [nM]	Compound	CL/F ([1]; plasma) [mL/min/kg]	T1/2 ([1]; plasma) [h]	Tmax ([1]; plasma) [h]	Cmax [1] [ng/mL]	AUC0-t ([1]; plasma) [ng·h/mL]
								CC(=O)O [Acetate]	55.2	9.41	3.33	2080	20350
0.78 ± 1.08	5.13 ± 2.85	2820 ± 2830	77.8	3.17 ± 4.19	42100	14	2.1	C=CC(=O)N1CCC(Nc2cc3c(Nc4ccc(F)c(Cl)c4)ncnc3cc2OC)CC1 [Example 1, N^6-(1-acryloylpiperidin-4-yl)-N^4-(3-chloro-4-fluorophenyl)-7-methoxyquinazoline-4,6-diamine]					
								Citrate	72	4.48	1.33	1290	10760
								Oxalate	23.2	9.38	1.50	3590	53200
